Reference: the NIST ThermoML archive (doi:10.1016/j.jct.2016.10.047)

Legend:
[1] = refractive index (other wavelength) (dimensionless); conditions: 94 kPa, Liquid, Wavelength=632.8 nm, minimum deviation method
[2] = refractive index (other wavelength) (dimensionless); xn = mol fraction of the nth substance listed; conditions: 94 kPa, Liquid, Wavelength=632.8 nm, minimum deviation method, x2 = 0

CCCCCCCC[n+]1ccn(C)c1.F[P-](F)(F)(F)(F)F [1-octyl-3-methylimidazolium hexafluorophosphate]
[1]
Conditions | refractive index
298.19 K | 1.4215
300.2 K | 1.421
302.19 K | 1.4204
304.2 K | 1.4199
306.22 K | 1.4193
308.24 K | 1.4188
310.25 K | 1.4183
312.24 K | 1.4178

CC(C)O [propan-2-ol]
[1]
Conditions | refractive index
298.21 K | 1.3736
300.17 K | 1.3728
302.2 K | 1.3719
304.24 K | 1.371
306.22 K | 1.3701
308.22 K | 1.3693
310.24 K | 1.3684
312.2 K | 1.3675

CC(C)O [propan-2-ol] + CCCCCCCC[n+]1ccn(C)c1.F[P-](F)(F)(F)(F)F
[2]
Conditions | refractive index
298.21 K | 1.3736
300.17 K | 1.3728
302.2 K | 1.3719
304.24 K | 1.371
306.22 K | 1.3701
308.22 K | 1.3693
310.24 K | 1.3684
312.2 K | 1.3675
